Consider 12 compounds from patent US20230045737A1, “SUBSTITUTED ISOINDOLINONES AS MODULATORS OF CEREBLON-MEDIATED NEO-SUBSTRATE RECRUITMENT” (Vividion Therapeutics, Inc., priority 2018, published 2023).

The target of the experiment is CRBN-DDB1 (Homo sapiens, UniProt Q96SW2). Nature of the experiment: CRBN Fluorescence Polarization Assay with BODIPY-IMid Tracer. It is filed as binding. Set-up: unit not given here. The following applies: competition with 30 nM BODIPY-IMiD tracer for 500 nM CRBN-DDB1, 3-fold serial dilution. As for the experimental part:
Promega assay was used to compare bifunctional ligands of the present invention to compete with IMiDs tracer binding to CRBN.
25 uM BODIPY-IMiD tracer (aliquots from Promega 160 uM stock solution)
Buffer: 100 mM Tris pH7.5, 150 mM NaCl, no DTT
Plates: PCR plate 96-well, Black 384-well
384-well plate 20 uL total volume
10 uL of CRBN-DDB1, BODIPY-IMiD added to 10 uL of ligand
A full 384-well assay plate was used to test bifunctional compounds with and without protein, Pomalidomide used as a control. Two 96-well PCR plates were prepared as follows: • 1. Plate 1 • a. To wells A1-A11 on a 96-well PCR plate 100 uM bifunctional compound was added to 40 uL total volume • i. 38 uL of buffer was added • ii. 2 uL was added of 2 mM bifunctional or IMiD compound in DMSO or 2 uL of 0.2 mM for CC220 analogs • b. To well A12 Pomalidomide was added as control • i. 38 uL buffer was added • ii. 2 uL of 2 mM Pomalidomide in DMSO was added • 2. Plate 2 • a. To wells A1-A10 on a 96-well PCR plate 100 uM bifunctional compound was added to 40 uL total volume • i. 38 uL of buffer was added • ii. 2 uL of 2 mM bifunctional compound in DMSO was added • b. To well A11 CC220 control was added • i. 38 uL buffer added • ii. 2 uL of 0.2 mM for CC220 was added • c. To well A12 DMSO control was added • i. Added buffer to 38 uL • ii. Added 2 uL of DMSO • 3. Prepared 7 mL of Buffer with 5% DMSO for serial dilution • a. 26.67 uL to rows B-H on 96-well plate • 4. Serial dilutions of samples in row A1 3-fold • a. 13.3 uL of A1 added to 26.67 uL in A2 • 5. Added 10 uL to 384-well plate • a. Added A1 from Plate 1 to wells A1 and A2 on 384-well plate (top half of 384-well plate) • b. Added A1 from Plate 2 to wells I1 and I2 on 384-well plate ([…] of 384-well plate)
A preparation was made of 500 nM CRBN-DDB1, 30 nM IMiD complex. To 4 mL of the prepared 500 nM CRBN-DDB1, 30 nM BODIPY-IMiD was added 47.6 uL of 46 uM CRBN-DDB1, 3.752 mL of Buffer (4 additions of 938 uL), 200 uL of DMSO, and 4.8 uL of 25 uM BODIPY IMiD stock. This incubated at room temperature for 10 minutes and then 10 uL was added to all wells on 384-well plate except wells M23-24, N23-24, O23-24, P23-24. Gain Control samples were then made consisting of 950 uL of Buffer, 50 uL of DMSO, 1.2 uL of 25 uM BODIPY IMiD stock, and 10 uL was added to wells M23-24, N23-24, O23-24, P23-24.

CRBN-DDB1, sequence (Q96SW2 whole entry): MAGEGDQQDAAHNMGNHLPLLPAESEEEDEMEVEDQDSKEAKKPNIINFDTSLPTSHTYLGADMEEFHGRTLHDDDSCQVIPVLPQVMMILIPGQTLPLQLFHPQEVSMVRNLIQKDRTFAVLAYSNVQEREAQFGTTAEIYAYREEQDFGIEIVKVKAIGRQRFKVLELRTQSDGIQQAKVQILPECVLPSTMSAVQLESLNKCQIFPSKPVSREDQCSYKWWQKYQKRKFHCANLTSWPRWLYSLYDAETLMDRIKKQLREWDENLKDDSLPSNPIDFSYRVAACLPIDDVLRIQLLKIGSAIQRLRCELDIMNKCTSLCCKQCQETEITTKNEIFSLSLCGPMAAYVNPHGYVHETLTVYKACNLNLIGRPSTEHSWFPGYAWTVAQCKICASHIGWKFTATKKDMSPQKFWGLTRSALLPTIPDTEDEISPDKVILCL
CRBN-DDB1, sequence (Q16531 whole entry partner): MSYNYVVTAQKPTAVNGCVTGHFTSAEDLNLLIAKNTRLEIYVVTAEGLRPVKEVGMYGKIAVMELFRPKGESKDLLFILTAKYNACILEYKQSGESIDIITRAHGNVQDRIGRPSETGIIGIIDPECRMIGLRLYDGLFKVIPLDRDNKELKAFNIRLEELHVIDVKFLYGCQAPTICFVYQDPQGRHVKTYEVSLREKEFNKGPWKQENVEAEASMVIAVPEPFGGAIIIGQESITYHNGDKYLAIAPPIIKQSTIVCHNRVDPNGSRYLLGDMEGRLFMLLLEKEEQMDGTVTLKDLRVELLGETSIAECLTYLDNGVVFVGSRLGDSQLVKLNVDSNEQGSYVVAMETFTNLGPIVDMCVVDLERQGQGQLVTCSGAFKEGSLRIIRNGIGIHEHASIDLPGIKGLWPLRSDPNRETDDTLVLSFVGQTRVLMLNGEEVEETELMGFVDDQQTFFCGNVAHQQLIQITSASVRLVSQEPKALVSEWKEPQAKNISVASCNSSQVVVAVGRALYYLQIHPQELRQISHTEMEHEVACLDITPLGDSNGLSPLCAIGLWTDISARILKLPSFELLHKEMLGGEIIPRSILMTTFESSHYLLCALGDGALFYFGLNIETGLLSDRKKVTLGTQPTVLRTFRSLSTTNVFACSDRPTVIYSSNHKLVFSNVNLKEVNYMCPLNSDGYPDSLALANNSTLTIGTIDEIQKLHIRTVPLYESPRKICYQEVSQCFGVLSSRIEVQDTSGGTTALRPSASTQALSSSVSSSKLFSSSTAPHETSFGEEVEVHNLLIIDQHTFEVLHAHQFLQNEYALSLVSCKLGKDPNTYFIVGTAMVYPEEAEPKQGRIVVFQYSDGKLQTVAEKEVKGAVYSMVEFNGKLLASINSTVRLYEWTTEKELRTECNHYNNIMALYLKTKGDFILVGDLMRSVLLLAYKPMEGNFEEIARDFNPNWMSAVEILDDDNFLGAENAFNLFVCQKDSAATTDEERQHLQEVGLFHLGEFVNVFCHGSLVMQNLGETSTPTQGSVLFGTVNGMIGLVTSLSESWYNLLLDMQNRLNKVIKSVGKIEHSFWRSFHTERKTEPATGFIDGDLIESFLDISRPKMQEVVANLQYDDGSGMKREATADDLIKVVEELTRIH

`O=C1CC[C@@H](N2Cc3c(OCc4ccc(CN5CCOCC5)cc4)cccc3C2=O)C(=O)N1`: the Result is reported as 0.16.
The figure for `O=C1CCC(N2Cc3c(OCCO)cccc3C2=O)C(=O)N1` (stereo not drawn) [3-(4-(2-hydroxyethoxy)-1-oxoisoindolin-2-yl)piperidine-2,6-dione] is 0.93; for `O=C1CCC(N2Cc3c(OCc4ccc(Cn5ccnc5)cc4)cccc3C2=O)C(=O)N1` (stereo not drawn) [3-(4-((4-((1H-imidazol-1-yl)methyl)benzyl)oxy)-1-oxoisoindolin-2-yl)piperidine-2,6-dione] it is 0.16; for `O=C1CCC(N2Cc3c(OCc4cc(CN5CCOCC5)ccn4)cccc3C2=O)C(=O)N1` (stereo not drawn) [3-(4-((4-(morpholinomethyl)pyridin-2-yl)methoxy)-1-oxoisoindolin-2-yl)piperidine-2,6-dione] it is 0.94.
The figure for `COc1ccc2c(c1)C(=O)N(C1CCC(=O)NC1=O)C2` (stereo not drawn) [3-(6-methoxy-1-oxoisoindolin-2-yl)piperidine-2,6-dione] is 1.43; for `O=C1CC[C@H](N2Cc3c(OCc4ccc(Br)cc4)cccc3C2=O)C(=O)N1` [(S)-3-(4-((4-bromobenzyl)oxy)-1-oxoisoindolin-2-yl)piperidine-2,6-dione] it is 0.25; for `O=C1CC[C@H](N2Cc3c(OCc4ccccc4)ccc(Br)c3C2=O)C(=O)N1` [(S)-3-(4-(benzyloxy)-7-bromo-1-oxoisoindolin-2-yl)piperidine-2,6-dione] it is 0.1.
The figure for `O=C1CC[C@H](N2Cc3cc(OCc4ccccc4)ccc3C2=O)C(=O)N1` [(S)-3-(5-(benzyloxy)-1-oxoisoindolin-2-yl)piperidine-2,6-dione] is 0.54.
As for `Nc1cccc2c1C(=O)N(C1CCC(=O)NC1=O)C2=O` (stereo not drawn) [Pomalidomide, pomalidomide, reference compound], the Result was found to be 1.57.
The figure for `COC(=O)C1CCCN(Cc2ccc(COc3cccc4c3CN(C3CCC(=O)NC3=O)C4=O)cc2)C1` (stereo not drawn) [methyl 1-(4-(((2-(2,6-dioxopiperidin-3-yl)-1-oxoisoindolin-4-yl)oxy)methyl)benzyl)piperidine-3-carboxylate] is 0.06; for `COC(=O)C1CCN(Cc2ccc(COc3cccc4c3CN(C3CCC(=O)NC3=O)C4=O)cc2)CC1` (stereo not drawn) [methyl 1-(4-(((2-(2,6-dioxopiperidin-3-yl)-1-oxoisoindolin-4-yl)oxy)methyl)benzyl)piperidine-4-carboxylate] it is 0.05.
The result for `COC(=O)C1CCN(Cc2ccc(COc3cccc4c3CN(C3CCC(=O)NC3=O)C4=O)cc2)C1` (stereo not drawn) [methyl 1-(4-(((2-(2,6-dioxopiperidin-3-yl)-1-oxoisoindolin-4-yl)oxy)methyl)benzyl)pyrrolidine-3-carboxylate] reads 0.14.
